The text below walks through data of patent US20140349923A1, “Compositions And Methods For Treating Diabetes And/Or Obesity” (GlaxoSmithKline Intellectual Property (No. 2) Limited, priority 2012, published 2014).

Molecules are shown by their SMILES.

This assay can be described thus: Chronic obesity efficacy study in DIO mice, chow ingredients with or without exendin-4 AlbudAb. The format is in vivo, DIO C57BL/6 mice. The protocol:
Male diet induced obese (DIO) C57BL/6 mice (40-50 g body weight) and lean C57BL/6 mice (Taconic, Hudson, N.Y.) were used for the chronic obesity efficacy studies. The DIO mice were group housed and fed a high fat diet (60% fat by kcal) by the vendor from the time of weaning. Upon receipt at the GlaxoSmithKline Research Triangle Park facility, all mice were single-housed and maintained at constant temperature (approximately 22° C.) with 12 hr light/dark cycle (lights on from 5:00 AM to 5:00 PM). The mice were given ad libitum access to food (Research Diets D12451, 45 kcal % fat for DIO; Lab Diet 5001, 13.5 kcal % fat for lean) and water. All animal protocols were approved by the institutional animal care and use committee at GlaxoSmithKline in Research Triangle Park, N.C. The BCE, OFS, pectin, oleic acid, Nutella containing chows were prepared by mixing in a Hobart mixer with a whisk attachment and stored at 4° C. until used. Chows were fed to mice in glass jars with wire mesh column inserts (Unifab Corp., Kalamazoo, Mich.). […] All combination then were evaluated with and without co-treatment with exendin-4-albudAb. […] Body weights (BW) were measured on day −7 and then every 3 to 4 days for the duration of the study. On day 24, body composition was measured using quantitative magnetic resonance (QMR). […]

As to `CCCCCCCC/C=C\CCCCCCCC(=O)O` [oleic acid], the “weight loss (% change in body weight)” value (26 days) was −4.3%. The “effect on weight compared to vehicle” value (Student's t-test) was “statistically significant weight loss”.
